These compounds were tested against T1, Human Polθ polymerase domain (aa1820-2590) (Homo sapiens, UniProt O75417) (assay: Polθ Polymerase Domain WT KI Assay (PicoGreen)). Details: 100 nM DNA substrate, 0.156 nM Polθ, initial rates vs inhibitor concentration.
T1 construct: Human Polθ polymerase domain (aa1820-2590) was expressed in E. Coli; made in house; host or cells: E. coli
T1 sequence (O75417 1820-2590): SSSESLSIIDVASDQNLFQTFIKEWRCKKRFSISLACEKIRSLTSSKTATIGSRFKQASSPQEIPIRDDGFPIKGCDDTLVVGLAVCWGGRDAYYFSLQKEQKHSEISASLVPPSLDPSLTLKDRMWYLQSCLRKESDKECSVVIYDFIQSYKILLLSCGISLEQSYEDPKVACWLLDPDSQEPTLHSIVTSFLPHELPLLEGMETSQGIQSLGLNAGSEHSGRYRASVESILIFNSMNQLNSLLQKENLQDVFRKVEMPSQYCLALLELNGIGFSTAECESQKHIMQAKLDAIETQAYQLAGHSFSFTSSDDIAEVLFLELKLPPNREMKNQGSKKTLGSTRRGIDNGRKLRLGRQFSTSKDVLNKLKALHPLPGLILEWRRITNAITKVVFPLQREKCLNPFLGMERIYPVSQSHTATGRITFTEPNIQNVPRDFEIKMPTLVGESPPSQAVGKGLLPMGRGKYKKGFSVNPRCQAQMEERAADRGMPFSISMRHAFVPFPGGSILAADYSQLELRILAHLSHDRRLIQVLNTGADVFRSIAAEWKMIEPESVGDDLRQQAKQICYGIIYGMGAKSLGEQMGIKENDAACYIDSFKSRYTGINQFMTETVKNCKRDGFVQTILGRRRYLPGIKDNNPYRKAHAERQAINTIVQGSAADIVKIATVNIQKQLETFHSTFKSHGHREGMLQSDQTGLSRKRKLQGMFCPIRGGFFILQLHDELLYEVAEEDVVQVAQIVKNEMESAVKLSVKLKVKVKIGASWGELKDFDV
Assay type: biochemical
In short: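 E. coli-expressed human Polθ polymerase domain (aa1820-2590) on annealed DNA II Short/Long primer-template (1.2:1), in 25 mM Tris pH 7.5, NaCl, 5% glycerol, 0.01% Triton X-100, 0.1 mg/ml BSA, 1 mM DTT, 1% DMSO. EDTA-quenched timepoints to 180 min, PicoGreen fluorescence. Initial rates vs inhibitor concentration fitted four-parameter for KI.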

Ki [nM] | SMILES
3.62 | Cc1cc(C(F)(F)F)cc(N2C(=O)C[C@@H]3CN(CCN4CCOCC4)c4c(C)cccc4NC(=O)[C@H]32)n1 [Example 147, (3aR,11aS)-6-Methyl-1-(6-methyl-4-(trifluoromethyl)pyridin-2-yl)-5-(2-morpholinoethyl)-1,3a,4,5,10,11a-hexahydro-2H-benzo[b]pyrrolo[2,3-f][1,4]diazocine-2,11(3H)-dione]
3.04 | Cc1cc(C(F)(F)F)cc(N2C(=O)C[C@@H]3CN(CCN4CCNCC4)c4c(C)cccc4NC(=O)[C@H]32)n1 [Example 148, (3aR,11aS)-6-Methyl-1-(6-methyl-4-(trifluoromethyl)pyridin-2-yl)-5-(2-(piperazin-1-yl)ethyl)-1,3a,4,5,10,11a-hexahydro-2H-benzo[b]pyrrolo[2,3-f][1,4]diazocine-2,11(3H)-dione]
3.25 | Cc1cc(C(F)(F)F)cc(N2C(=O)C[C@@H]3CN(CCN4CCN(C)CC4)c4c(C)cccc4NC(=O)[C@H]32)n1 [Example 149, (3aR,11aS)-6-Methyl-1-(6-methyl-4-(trifluoromethyl)pyridin-2-yl)-5-(2-(4-methylpiperazin-1-yl)ethyl)-1,3a,4,5,10,11a-hexahydro-2H-benzo[b]pyrrolo[2,3-f][1,4]diazocine-2,11(3H)-dione]

Source: patent publication US20260124214A1, “HETEROCYCLIC COMPOUNDS FOR USE IN THE TREATMENT OF CANCER” (ARTIOS PHARMA LIMITED, priority 2021, published 2026)
